Legend:
Dtx1 = assay: Transcription of Notch target gene Dtx1 in CEM cells after GSI treatment; type: cell-based, human; details: CEM cells (T-ALL cell line), 1 nM, three days
Protocol: (§1) FIGS. 9A-9D show γ-secretase-inhibitor mediated suppression of CCR7 expression. CEM cells (T-ALL cell line) were treated with either Compound E (Comp E) (1 nM) or DBZ (1 nM) for three days. FIG. 9A is a panel of western blots showing the disappearance of the activated N1-IC protein in CEM cells following γ-secretase inhibitor (GSI) treatment. β-actin immunoreactivity is shown as a loading control. […] Error bars define standard deviation from mean.
(§2) RNA was isolated using RNeasy Plus Mini Kit (Qiagen, Valencia, Calif.) columns and used to synthesize cDNA with the SuperScript First-Strand Kit (Invitrogen, Carlsbad, Calif.). Real time PCR was performed using iQ SYBR Green Supermix and an iCycler (Bio-Rad, Hercules, Calif.). Relative expression was determined from cycle threshold (CT) values and was normalized using β-actin as an internal control.

human CCR7 = assay: CCR7 expression in T-ALL cell lines after GSI treatment; type: cell-based; details: for transcription of human CCR7: CEM cells (T-ALL cell line), 1 nM, three days; for CCR7 mRNA and protein expression: T-ALL cell lines, addition of γ-secretase inhibitors
Protocol: as §1, §2
To further correlate Notch 1 activation and CCR7 expression, T-ALL cell lines harboring Notch 1 activating mutations and primary T-ALL samples were analyzed. Strikingly, surface CCR7 was expressed in 80% (4/5) of T-ALL lines (FIG. 8A) and in 73% (8/11) of peripheral blood from primary T-ALL samples (FIG. 8B; #114, #358, and #479). […] To obtain a preliminary estimate of the importance of CCR7 expression in CNS infiltration, two human T-ALL lines were selected (FIG. 8A), one expressing CCR7 (CEM/CCR7^pos) and one deficient in CCR7 expression (DND41/CCR7^neg). Both cell lines were infected using a luciferase-expressing lentivirus. To study disease induction and progression, the cells were transplanted into lymphoid Rag2−/− γc−/− host animals. Transplantation of an identical number of leukemia cells led to distinct survival patterns as host animals which received CEM/CCR7^pos cells succumbed to the leukemic disease earlier that the ones receiving the DND41/CCR7^neg cells (FIG. 3A). Using live animal bioluminescent imaging, a higher tumor load in mice that received the […] cell line was observed (FIG. 3B). Most importantly, the brain and spinal cord of CEM/CCR7^pos-transplanted hosts (but not the DND41/CCR7^neg) were infiltrated by T-ALL cells (FIG. 3C). Further histopathological analysis confirmed the localization of the infiltrating cells in leptomeningeal spaces (FIG. 3D).

Hes1 = assay: Transcription of Notch target gene Hes1 in CEM cells after GSI treatment; type: cell-based, human; details: CEM cells (T-ALL cell line), 1 nM, three days
Protocol: as §1, §2

activated N1-IC protein = assay: Western blot of activated N1-IC protein in CEM cells after γ-secretase inhibitor treatment; type: cell-based, human; details: CEM cells (T-ALL cell line), 1 nM, three days
Protocol: as §1

SMILES | transcription of Dtx1 (Dtx1) | transcription of human CCR7 (human CCR7) | CCR7 mRNA and protein expression (human CCR7) | transcription of Hes1 (Hes1) | activated N1-IC protein (western blot) (activated N1-IC protein)
C[C@H](NC(=O)Cc1cc(F)cc(F)c1)C(=O)N[C@H]1N=C(c2ccccc2)c2ccccc2N(C)C1=O [Compound E] | efficiently suppressed | suppressed | significant down-regulation | efficiently suppressed | disappearance
C[C@H](NC(=O)Cc1cc(F)cc(F)c1)C(=O)N[C@@H]1C(=O)N(C)c2ccccc2-c2ccccc21 [DBZ] | efficiently suppressed | suppressed | significant down-regulation | efficiently suppressed | disappearance
